According to patent publication US20240116937A1, “Polymorph of (1S,2S,3S,5R)-3-((6-(difluoromethyl)-5-fluoro-1,2,3,4-tetrahydroisoquinolin-8-yl)oxy)-5-(4-methyl-7H-pyrrolo[2,3-D]pyrimidin-7-yl)cyclopentane-1,2-diol” (Pfizer Inc., priority 2020, published 2024):

Assay: Hygroscopicity: % mass change (ref dry mass) versus RH, free base compared to hydrochloride salt
Type: physicochemical
From the text: Hygroscopicity of Free Base (1S,2S,3S,5R)-3-((6-(difluoromethyl)-5-fluoro-1,2,3,4-tetrahydroisoquinolin-8-yl)oxy)-5-(4-methyl-7H-pyrrolo[2,3-d]pyrimidin-7-yl)cyclopentane-1,2-diol Compared to Crystalline (1S,2S,3S,5R)-3-((6-(difluoromethyl)-5-fluoro-1,2,3,4-tetrahydroisoquinolin-8-yl)oxy)-5-(4-methyl-7H-pyrrolo[2,3-d]pyrimidin-7-yl)cyclopentane-1,2-diol hydrochloride salt

Cc1ncnc2c1ccn2[C@@H]1C[C@H](Oc2cc(C(F)F)c(F)c3c2CNCC3)[C@@H](O)[C@H]1O [Free Base, (1S,2S,3S,5R)-3-((6-(difluoromethyl)-5-fluoro-1,2,3,4-tetrahydroisoquinolin-8-yl)oxy)-5-(4-methyl-7H-pyrrolo[2,3-d]pyrimidin-7-yl)cyclopentane-1,2-diol]
physical stability (hygroscopicity) relative to the dihydrochloride salt of WO2017/212385: low hygroscopicity | % Mass-Ref Dry mass (RH 10): 0.1% | % Mass-Ref Dry mass (RH 20): 0.3% | % Mass-Ref Dry mass (RH 30): 0.4% | % Mass-Ref Dry mass (RH 40): 1.8% | % Mass-Ref Dry mass (RH 50): 2.0% | % Mass-Ref Dry mass (RH 60): 2.1% | % Mass-Ref Dry mass (RH 70): 2.2% | % Mass-Ref Dry mass (RH 80): 2.2% | % Mass-Ref Dry mass (RH 90): 2.3%
